In patent US10414811B2, “Protease-resistant lipidated GLP-1 analogs” (MEDIMMUNE LIMITED, priority 2015, dated 2019):
Read-outs that look alike come from different tables or passages of the source. Numbered stars: 1 amine (or outer) side, 2 acyl side, 3 side chain; on linkers, the order of the positions; unused ones are H or OH. Square brackets hold non-standard residues; d marks the D form. Side chains are listed from the residue outwards. Peptide text beside a SMILES is read from it. * marks the point of attachment. γGlu = O=C(O)[C@H](CCC(=O)[*:2])N[*:1]; αMeF = C[C@](N)(Cc1ccccc1)C(=O)O; αMeK = C[C@](N)(CCCCN)C(=O)O; Lauroyl = CCCCCCCCCCCC(=O)*; αMeS = C[C@](N)(CO)C(=O)O; AEEA = NCCOCCOCC(=O)O; Aib = CC(C)(N)C(=O)O

Legend:
Assay type in all cases: cell-based
[1] = biological target: T1, human GLP-1 receptor (GLP-1R) (Homo sapiens, UniProt P43220); experiment: cAMP assay, human GLP-1R cells
T1 construct: expressed in transfected cells
T1 sequence (P43220 24-463): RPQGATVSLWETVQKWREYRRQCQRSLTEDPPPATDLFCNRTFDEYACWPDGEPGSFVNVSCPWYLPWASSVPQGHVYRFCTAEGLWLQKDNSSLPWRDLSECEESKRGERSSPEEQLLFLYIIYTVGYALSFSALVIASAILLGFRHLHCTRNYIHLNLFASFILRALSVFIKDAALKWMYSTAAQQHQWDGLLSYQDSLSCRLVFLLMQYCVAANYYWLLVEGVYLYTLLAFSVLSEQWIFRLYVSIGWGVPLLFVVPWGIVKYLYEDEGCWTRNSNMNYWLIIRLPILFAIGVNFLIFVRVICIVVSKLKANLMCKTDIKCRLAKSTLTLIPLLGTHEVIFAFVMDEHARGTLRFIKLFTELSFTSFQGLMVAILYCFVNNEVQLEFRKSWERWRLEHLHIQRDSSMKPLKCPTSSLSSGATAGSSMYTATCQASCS
Summary of the method: (§1)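 Peptide-stimulated cAMP measured by two-step HTRF after a 30 min room-temperature incubation with receptor-expressing cells (hGLP-1R, hGIPR at 1×10^5 cells/ml; hGCGR at 2×10^5 cells/ml). Duplicate dilutions; EC50 from 4-parameter logistic fit of % Delta F.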

[2] = biological target: T2, human glucagon receptor (GCGR) (Homo sapiens, UniProt P47871); experiment: cAMP assay, human GCGR cells
T2 construct: expressed in transfected cells
T2 sequence (P47871 26-477): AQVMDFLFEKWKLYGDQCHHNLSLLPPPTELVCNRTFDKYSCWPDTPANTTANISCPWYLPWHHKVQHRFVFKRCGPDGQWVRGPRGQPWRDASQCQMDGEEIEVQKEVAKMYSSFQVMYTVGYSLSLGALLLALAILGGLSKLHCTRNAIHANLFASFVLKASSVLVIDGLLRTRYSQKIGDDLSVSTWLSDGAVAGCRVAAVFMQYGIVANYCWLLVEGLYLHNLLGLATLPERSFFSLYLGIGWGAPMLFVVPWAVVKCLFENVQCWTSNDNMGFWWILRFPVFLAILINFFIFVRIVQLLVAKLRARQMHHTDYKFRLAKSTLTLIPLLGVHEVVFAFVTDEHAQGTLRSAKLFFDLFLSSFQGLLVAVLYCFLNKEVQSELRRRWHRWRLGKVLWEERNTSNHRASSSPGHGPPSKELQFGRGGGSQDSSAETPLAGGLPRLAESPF
Summary of the method: as §1

[3] = biological target: T3, human glucose-dependent insulinotropic peptide receptor (GIPR) (Homo sapiens, UniProt P48546); experiment: cAMP assay, human GIPR cells
T3 construct: expressed in transfected cells
T3 sequence (P48546 22-466): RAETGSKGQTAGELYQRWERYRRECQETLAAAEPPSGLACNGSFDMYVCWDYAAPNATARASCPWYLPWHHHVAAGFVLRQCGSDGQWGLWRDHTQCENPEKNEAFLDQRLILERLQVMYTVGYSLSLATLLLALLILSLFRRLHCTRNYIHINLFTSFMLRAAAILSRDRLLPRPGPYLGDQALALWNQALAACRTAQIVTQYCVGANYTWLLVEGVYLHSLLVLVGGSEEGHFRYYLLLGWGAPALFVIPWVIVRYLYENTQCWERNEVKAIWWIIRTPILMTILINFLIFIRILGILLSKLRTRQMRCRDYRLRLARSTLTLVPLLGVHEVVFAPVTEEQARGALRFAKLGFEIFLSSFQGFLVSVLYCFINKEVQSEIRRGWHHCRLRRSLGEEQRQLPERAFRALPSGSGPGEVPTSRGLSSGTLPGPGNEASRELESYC
Summary of the method: as §1

[4] = cAMP assay, first determination (n1), read-out: Primary assay EC50 GLP-1R n1
[5] = cAMP assay, second determination (n2), read-out: Primary assay EC50 GLP-1R n2
[6] = mean of n1 and n2, read-out: Mean pM GLP-1R
[7] = cAMP assay, first determination (n1), read-out: Primary assay EC50 Gluc-R (n1)
[8] = cAMP assay, second determination (n2), read-out: Primary assay EC50 Gluc-R (n2)
[9] = cAMP assay, first determination (n1), read-out: Primary assay EC50 GIP-R (n1)
[10] = cAMP assay, second determination (n2), read-out: Primary assay EC50 GIP-R (n2)

Row | SMILES | EC50 [1, 4] [pM] | EC50 [1, 5] [pM] | EC50 [1, 6] [pM] | EC50 [2, 7] [nM] | EC50 [2, 8] [nM] | EC50 [3, 9] [nM] | EC50 [3, 10] [nM] | EC50 ([1]; tris-lipidated peptides, mean of n1 and n2, read-out: Primary assay EC50 Mean pM GLP-1R) [pM] | EC50 ([1]; tris-lipidated peptides, replicate n1, read-out: Primary assay EC50 GLP-1R n1) [pM] | EC50 ([1]; tris-lipidated peptides, replicate n2, read-out: Primary assay EC50 GLP-1R n2) [pM] | EC50 ([2]; tris-lipidated peptides, second replicate, read-out: Primary assay EC50 Gluc-R (n2)) [nM] | EC50 ([3]; tris-lipidated peptides, first replicate, read-out: Primary assay EC50 GIP-R (n1)) [nM]
1 | CCCCCCCCCCCC(=O)N[C@@H](CCC(=O)NCCCC[C@H](NC(=O)[C@H](C)NC(=O)[C@H](C)NC(=O)[C@H](CCC(=O)O)NC(=O)CNC(=O)[C@H](CCC(=O)O)NC(=O)[C@H](CC(C)C)NC(=O)[C@](C)(Cc1ccccc1)NC(=O)[C@H](CO)NC(=O)[C@](C)(CO)NC(=O)[C@@H](NC(=O)[C@H](CC(=O)O)NC(=O)[C@H](CO)NC(=O)[C@@H](NC(=O)[C@](C)(Cc1ccccc1)NC(=O)[C@H](CO)NC(=O)CNC(=O)[C@H](CCC(=O)O)NC(=O)C(C)(C)NC(=O)[C@@H](N)Cc1c[nH]cn1)[C@@H](C)O)C(C)C)C(=O)N[C@@H](CCC(=O)O)C(=O)N[C@@](C)(Cc1ccccc1)C(=O)N[C@H](C(=O)N[C@@H](C)C(=O)N[C@@](C)(Cc1ccccc1)C(=O)N[C@H](C(=O)N[C@H](C(=O)N[C@@](C)(CCCCN)C(=O)NCC(=O)NCC(N)=O)C(C)C)C(C)C)[C@@H](C)CC)C(=O)O [compound 128] | 15 | 21 | 18.2 | ≥ 28 | ≥ 28 | ≥ 28 | ≥ 28 | – | – | – | – | –
2 | CCCCCCCCCCCC(=O)N[C@@H](CCC(=O)NCCOCCOCC(=O)NCCOCCOCC(=O)NCCCC[C@H](NC(=O)CNC(=O)[C@H](CCC(=O)O)NC(=O)[C@H](CCCCNC(=O)COCCOCCNC(=O)COCCOCCNC(=O)CC[C@H](NC(=O)CCCCCCCCCCC)C(=O)O)NC(=O)[C@H](Cc1ccc(O)cc1)NC(=O)[C@H](CO)NC(=O)[C@](C)(CO)NC(=O)[C@@H](NC(=O)[C@H](CC(=O)O)NC(=O)[C@H](CO)NC(=O)[C@@H](NC(=O)[C@](C)(Cc1ccccc1)NC(=O)[C@H](CO)NC(=O)CNC(=O)[C@H](CCC(=O)O)NC(=O)C(C)(C)NC(=O)[C@@H](N)Cc1c[nH]cn1)[C@@H](C)O)C(C)C)C(=O)N[C@@H](C)C(=O)N[C@@H](C)C(=O)N[C@@](C)(CCCCN)C(=O)N[C@@H](CCC(=O)O)C(=O)N[C@@H](Cc1ccccc1)C(=O)N[C@H](C(=O)N[C@@H](C)C(=O)N[C@@H](CCCCNC(=O)COCCOCCNC(=O)COCCOCCNC(=O)CC[C@H](NC(=O)CCCCCCCCCCC)C(=O)O)C(=O)N[C@H](C(=O)N[C@H](C(=O)N[C@@H](CCC(=O)O)C(=O)NCC(=O)NCC(N)=O)C(C)C)C(C)C)[C@@H](C)CC)C(=O)O [compound 468] (H-H[Aib]EGS[αMeF]TSDV[αMeS]SYK([AEEA-AEEA-γGlu-Lauroyl])EGK([AEEA-AEEA-γGlu-Lauroyl])AA[αMeK]EFIAK([AEEA-AEEA-γGlu-Lauroyl])VVEGG-NH2) | – | – | – | – | – | – | – | 73.5 | 62.4 | 84.5 | 20 | 20
3 | CCCCCCCCCCCC(=O)N[C@@H](CCC(=O)NCCCC[C@H](NC(=O)[C@@H](NC(=O)[C@@H](NC(=O)[C@](C)(Cc1ccccc1)NC(=O)[C@H](C)NC(=O)[C@@H](NC(=O)[C@](C)(Cc1ccccc1)NC(=O)[C@H](CCC(=O)O)NC(=O)[C@](C)(CCCCN)NC(=O)[C@H](C)NC(=O)[C@H](C)NC(=O)[C@H](CCC(=O)O)NC(=O)CNC(=O)[C@H](CCC(=O)O)NC(=O)[C@H](CC(C)C)NC(=O)[C@](C)(Cc1ccccc1)NC(=O)[C@H](CO)NC(=O)[C@](C)(CO)NC(=O)[C@@H](NC(=O)[C@H](CC(=O)O)NC(=O)[C@H](CO)NC(=O)[C@@H](NC(=O)[C@](C)(Cc1ccccc1)NC(=O)[C@H](CO)NC(=O)CNC(=O)[C@H](CCC(=O)O)NC(=O)C(C)(C)NC(=O)[C@@H](N)Cc1c[nH]cn1)[C@@H](C)O)C(C)C)[C@@H](C)CC)C(C)C)C(C)C)C(=O)NCC(=O)NCC(N)=O)C(=O)O [compound 164] | 22 | 7.8 | 14.6 | ≥ 28 | ≥ 28 | ≥ 28 | ≥ 28 | – | – | – | – | –
